Results from patent US20250073309A1, “METHODS OF TREATMENT OF PEDIATRIC PUBERTY USING ORAL FORMULATIONS OF LEUPROLIDE” (Enteris Biopharma, Inc., priority 2021, published 2025).

Conditions: female, human, in vivo, sc, 1 mg
Procedure: The presently disclosed embodiments may include a technology platform employing enteric coating and permeation enhancement to enable systemic delivery of peptides via the oral route. To determine whether the oral formulation described herein enables systemic delivery of therapeutic doses of the GnRH agonist leuprolide via oral route, a randomized, four-period, four-treatment, crossover pharmacokinetic and food effect study was conducted in 14 healthy female volunteers, which compared PK profiles following single administrations of 1 and 4 mg of leuprolide—the latter under both fasting and fed conditions—to that of a single subcutaneous injection of 1 mg of leuprolide acetate.
Study objectives were to assess the relative bioavailability, dose proportionality, safety and tolerability of orally-administered leuprolide, as well as the effect of food on drug absorption. Frequent blood sampling for 24 hours followed each dose, and each treatment was separated by 7 days. […] The ‘fed’ condition involved consumption of a high-fat, high-calorie meal 30 minutes prior to drug administration.

For `CCNC(=O)[C@@H]1CCCN1C(=O)[C@H](CCCNC(=N)N)NC(=O)[C@H](CC(C)C)NC(=O)[C@@H](CC(C)C)NC(=O)[C@H](Cc1ccc(O)cc1)NC(=O)[C@H](CO)NC(=O)[C@H](Cc1c[nH]c2ccccc12)NC(=O)[C@H](Cc1c[nH]cn1)NC(=O)[C@@H]1CCC(=O)N1` [sc leuprolide, leuprolide acetate], the “Mean AUC0-24h” value was 163.0 ± 18.8 ng·h/mL, the “Mean Cmax” value was 59.4 ± 9.1 ng/mL and the “Mean Tmax” value was 3.49 ± 0.23 h.
